# Reference: US10849966B2, “Methods for treating netosis and neutrophil activation” (TRUSTEES OF BOSTON UNIVERSITY, priority 2017, dated 2020)
# Several values for one entry are separate records, joined by “and”; a condition that tells them apart may be missing. Equal entries are not always repeated. Entries after “also recorded” stand apart in the source; their conditions may differ.
# Assays:
# [1] = test system: chronic kidney disease in Tg25+ male rats; test: CKD in Tg25+ male rats fed a HSD; assay type: in vivo, rat; settings: hu-6g8 3 mg/kg IV at D0, D7, D14 and D21, Mean ± SD
# [2] = target: T1, DEspR on intact human cells (Homo sapiens, UniProt B0L3A2); test: hu6g8 binding to DEspR on intact human cells; settings: done in triplicate
# T1 construct: endogenous in cells; host or cells: intact human cells / 'DEspR+ human cells'
# T1 sequence (B0L3A2 1-85): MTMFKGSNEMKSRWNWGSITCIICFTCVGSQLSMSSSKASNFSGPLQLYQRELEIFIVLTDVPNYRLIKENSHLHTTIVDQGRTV
# From the text: (§1) FIGS. 17A-17C depict anti-DEspR-mab (hu6g8 mab). FIG. 17A depicts a diagram of DEspR, murine precursor mabs and humanized IgG and IgG4 mabs. Hu6g8 is notated as 6g8g7-hu-IgG4 raised against epitope 2, spanning the putative binding domain.
# Described herein is the development, characterization, and validation of a fully humanized anti-DEspR mAb with a S228P hinge-stabilized IgG4/kappa FC region, designated herein as hu-6g8 or […]. The hu-6g8 was designed for high binding affinity to DEspR+ human cells and inhibition of activated neutrophil survival. hu-6g8 is reactive in all species, having identical epitopes in human, primates and rodents, which facilitates preclinical and clinical studies using the therapeutic lead. […] (FIG. 6). Through recombinant DNA technology, hu-6g8 was designed with optimal biophysical properties via: a) avoidance of T-cell epitopes for low immunogenicity—‘deimmunized’, b) optimization of heavy and light chain interactions for stability of variable domains, and c) exclusion of destabilizing post-translational modification sites [deamidation, oxidation, acid-lability, inappropriate N-glycosylation, isomerization and pyroglutamate formation].
# Described herein are the advantages of anti-DEspR mAb targeted AECs. DEspR, the dual endothelin1/signal peptide receptor,^9 is a validated target on human activated neutrophils and NETs. […]
# [3] = complete blood counts in Panc1-CSC xenograft (CDX) tumor model; assay type: in vivo, rat; settings: CBC weekly from day 21, vs non-treated controls
# Method: Complete blood counts (CBC) were measured weekly starting day 21-1 week after treatment onset on day 14 (14 days after Panc1-CSC xenograft (CDX) tumor establishment).
# activated neutrophils = test: dose-response survival assay of activated neutrophils (Trypan blue dye exclusion); assay type: cell-based; settings: live cells counted by Trypan blue dye exclusion; listed as 6g8-humab; read-out: IC50, inhibition of activated neutrophil survival
# From the text: FIG. 6 depicts a graph comparison of functional activity of anti-DEspR fully humanized 6g8 mAb, 6g8-humab, and prototype murine anti-DEspR 6g8 mAb, 6g8-mumab.
# as §1
# Described herein are the advantages of anti-DEspR mAb targeted AECs. DEspR, the dual endothelin1/signal peptide receptor,^9 is a validated target on human activated neutrophils and NETs. Hu6g8 binds human activated neutrophils (FIG. 18A) and NETs (FIG. 18B), as confirmed by Western Blot analysis of DEspR protein in human kidney (K), and activated neutrophil samples, act-Ns (FIG. 18C). Humanized anti-DEspR-mab (hu6g8 mab) is an ideal targeting moiety. Hu6g8 is the multi-species Human/NHPrimate/Rat reactive humanized-deimmunized anti-DEspR-mab with a hinge-stabilized IgG4S228P/kappa Fc region (FIG. 17A) to avoid (ADCC-antibody dependent cell-mediated cytotoxicity, CDC-complement dependent cytotoxicity), and to eliminate loss of targeting upon Fab arm exchange typical of native IgG4 isotype. […] Through recombinant DNA technology, the antibody design incorporates: a) avoidance of T-cell epitopes for low immunogenicity; b) optimization of heavy and light chain interactions for stability of variable domains; and, c) exclusion of destabilizing post-translational modification sites [e.g., deamidation, oxidation]. The targeting of DEspR^+ NETs, but sparing of DEspR(−) quiescent neutrophils via the anti-DEspR mAb is also novel. […] The use of human neutrophil-elastase cleavable linker is advantageous as this connector-peptide can be added by recombinant technology and HNE is enriched on NETs and actually a reason for the injurious properties of NETs. HNE is desirable for local therapeutic delivery [Owen C A, Campbell E J. J Leukocyte Biol 1999, 65 (2) 137-150], has specificity for small uncharged amino acids particularly alanine (A) and valine (V) [Meers P. Adv Drug Delivery Rev. 2001. 53 (3) 265-272]. […] The advantages of all three in an AEC is novel and robust as the targeted delivery and release of DNAse 1 on NETs can attain in vivo efficacy of what has been shown in vitro, the induction of macrophage uptake-and-clearance of NETs upon DNAse 1 digest of NETs DNA. In summary, targeting the intravascular NETs sites. The humanized anti-DEspR-mab with a hinge-stabilized IgG4/kappa Fc region to avoid Fab arm exchange in vivo and ensuing loss of targeting was selected. Additionally, this avoids immune effector functions of IgG1 mAbs (ADCC, CDC), which would worsen endothelial injury. […]
# [4] = test system: chronic kidney disease in Dahl S female rats; test: CKD in Dahl S female rats fed a HSD; assay type: in vivo, rat; settings: for albuminuria, effect in words / urinary albumin creatinine ratio (UACR), effect in words: 3 mg/kg iv × 1 dose, after 7 days, moderate-severe CKD; for Albuminuria / Creatinine Clearance / UACR (urinary albumin/urinary creatinine ratio) / Urinary Exosome Excretion: Mean ± SD
# From the text: Legend: hu-6g8, humanized anti-DEspR monoclonal antibody, HSD, high salt diet induced via 2% NaCl water to drink ad lib; CKD, Dahl salt-sensitive hypertensive rats with chronic kidney disease with moderate nephrosclerosis (Raij scores˜300) induced with a high salt diet (2% NaCl); control, non-treated age- and sex-matched CKD rats.
# [5] = PK study in Panc1 xenograft mice; assay type: in vivo; settings: 15 mg/kg i.v. (n=3)
substance,measurement,setting,value
hu-6g8: fully humanized anti-DEspR mAb with a S228P hinge-stabilized IgG4/kappa FC region,Albuminuria,[1]; D14,217 ± 87 mg/kg/day
same,Creatinine Clearance,[1]; D14,279 ± 82 µL/min
same,UACR (urinary albumin/urinary creatinine ratio),[1]; D14,8309 ± 3731
same,Urinary Exosome Excretion,[1]; D14,771 ± 220 mg/kg/day
same,Albuminuria,[1]; D28,164.8 ± 86 mg/kg/day
same,Creatinine Clearance,[1]; D28,268 ± 30 µL/min
same,UACR (urinary albumin/urinary creatinine ratio),[1]; D28,5567 ± 2210
same,Urinary Exosome Excretion,[1]; D28,651 ± 191 mg/kg/day
same,EC50,[2],< 5 nM and 4.2 nM
same,numbers of quiescent neutrophils (neutropenia side effect),[3]; treatment onset day 14,does not cause decreased numbers of quiescent neutrophils
same,platelet counts,[3],does not cause decreased platelet counts
same,red blood cell counts,[3],does not cause decreased platelet counts or red blood cell counts
same,IC50,activated neutrophils,< 8 nM and 7.7 nM
same,"albuminuria, effect in words",[4],decreased
same,"urinary albumin creatinine ratio (UACR), effect in words",[4],decreased
same,"albuminuria, effect in words",[4]; listed as ABTM-468,decreased; also recorded: reduced
same,"urinary albumin creatinine ratio (UACR), effect in words",[4]; listed as ABTM-468,decreased; also recorded: reduced
same,Albuminuria,"[4]; D7 (day of dosing, baseline)",404 ± 190 mg/kg/day
same,Creatinine Clearance,"[4]; D7 (day of dosing, baseline)",104 ± 35 µL/min
same,UACR (urinary albumin/urinary creatinine ratio),"[4]; D7 (day of dosing, baseline)",25450 ± 8980
same,Urinary Exosome Excretion,"[4]; D7 (day of dosing, baseline)",663 ± 224 mg/kg/day
same,Albuminuria,"[4]; D14, hu-6g8 3 mg/kg IV at D7",92.5 ± 95 mg/kg/day
same,Creatinine Clearance,"[4]; D14, hu-6g8 3 mg/kg IV at D7",168 ± 118 µL/min
same,UACR (urinary albumin/urinary creatinine ratio),"[4]; D14, hu-6g8 3 mg/kg IV at D7",2285 ± 2337
same,Urinary Exosome Excretion,"[4]; D14, hu-6g8 3 mg/kg IV at D7",876 ± 348 mg/kg/day
same,half-life,[5],40.8 h
